Test results taken from PubChem BioAssay AID328 (DTP/NCI, 2004).
Values joined by “and” are separate entries in the source; they are usually repeats but may differ in a detail not shown here. Equal values may be shown once. Toxic doses and inconclusive results are not listed.

Tested on: BDF1 mice, P388 leukemia ip, median survival T/C
Assay: NCI In Vivo Anticancer Drug Screen. Data for tumor model P388 Leukemia (intraperitoneal) in B6D2F1 (BDF1) mice
Conditions: endpoint: median survival time, higher = longer survival
Method: The antitumor activity of compounds was measured in mice bearing transplantable tumors. Survival or tumor size were measured and the results are expressed as the measurement made in the treated group (T) divided by the measurement made in the vehicle treated control group (C). The tumor model used in this assay is P388 Leukemia (intraperitoneal) in B6D2F1 (BDF1) mice

[1] = dose: 100.0 mg/kg/injection, schedule: Q01DX009 (ip), vehicle: saline with Tween-80
[2] = dose: 200.0 mg/kg/injection, schedule: Q01DX009 (ip), vehicle: saline with Tween-80
[3] = dose: 25.0 mg/kg/injection, schedule: Q01DX009 (ip), vehicle: Klucel (hydroxypropylcellulose) (HPC)

In the case of `NN=C1CCC(=NN)CC1`, the T/C (dose: 12.5 mg/kg/injection, schedule: Q01DX009 (ip), vehicle: water) was 100 % of control, the T/C (dose: 25.0 mg/kg/injection, schedule: Q01DX009 (ip), vehicle: water) was 105 % of control and 109 % of control and the T/C (dose: 25.0 mg/kg/injection, schedule: Q04DX003 (ip), vehicle: water) was 90 % of control and 104 % of control. The T/C (dose: 50.0 mg/kg/injection, schedule: Q01DX009 (ip), vehicle: water) was 103 % of control and 113 % of control and 114 % of control, the T/C (dose: 50.0 mg/kg/injection, schedule: Q04DX003 (ip), vehicle: water) was 95 % of control and 114 % of control and 118 % of control and the T/C (dose: 100.0 mg/kg/injection, schedule: Q04DX003 (ip), vehicle: water) was 102 % of control and 111 % of control. The T/C (dose: 200.0 mg/kg/injection, schedule: Q04DX003 (ip), vehicle: water) was 92 % of control.
In the case of `Cc1cc2nc(Oc3ccccc3)nc(=O)n2o1`, the T/C (dose: 50.0 mg/kg/injection, schedule: Q01DX009 (ip), vehicle: saline with Tween-80) was 100 % of control and 117 % of control, the T/C [1] was 106 % of control and 123 % of control and the T/C [2] was 112 % of control and 121 % of control.
In the case of `CCCCCCCCCCCCCCSCCSCCSCCCCCCCCCCCCCC`, the T/C (dose: 25.0 mg/kg/injection, schedule: Q01DX001 (ip), vehicle: saline sonified) was 86 % of control and the T/C (dose: 100.0 mg/kg/injection, schedule: Q01DX001 (ip), vehicle: saline sonified) was 86 % of control.
For `O=[N+]([O-])c1ccc(S(=O)c2ccc([N+](=O)[O-])cc2)cc1`, the T/C (dose: 100.0 mg/kg/injection, schedule: Q01DX009 (ip), vehicle: Klucel (hydroxypropylcellulose) (HPC)) was 100 % of control, the T/C (dose: 100.0 mg/kg/injection, schedule: Q04DX003 (ip), vehicle: Klucel (hydroxypropylcellulose) (HPC)) was 100 % of control and the T/C (dose: 200.0 mg/kg/injection, schedule: Q01DX009 (ip), vehicle: Klucel (hydroxypropylcellulose) (HPC)) was 95 % of control. The T/C (dose: 200.0 mg/kg/injection, schedule: Q04DX003 (ip), vehicle: Klucel (hydroxypropylcellulose) (HPC)) was 100 % of control and the T/C (dose: 400.0 mg/kg/injection, schedule: Q04DX003 (ip), vehicle: Klucel (hydroxypropylcellulose) (HPC)) was 100 % of control.
`O=[N+]([O-])c1ccc(-[n+]2nc(-c3ccccc3)nn2-c2ccc(I)cc2)cc1` was tested, and the T/C (dose: 12.5 mg/kg/injection, schedule: Q01DX009 (ip), vehicle: Klucel (hydroxypropylcellulose) (HPC)) was 100 % of control, the T/C (dose: 16.5 mg/kg/injection, schedule: Q04DX003 (ip), vehicle: Klucel (hydroxypropylcellulose) (HPC)) was 90 % of control and the T/C (dose: 16.5 mg/kg/injection, schedule: Q04DX003 (ip), vehicle: saline) was 122 % of control. The T/C [3] was 110 % of control, the T/C (dose: 25.0 mg/kg/injection, schedule: Q04DX003 (ip), vehicle: Klucel (hydroxypropylcellulose) (HPC)) was 109 % of control and the T/C (dose: 25.0 mg/kg/injection, schedule: Q04DX003 (ip), vehicle: saline) was 109 % of control. The T/C (dose: 37.5 mg/kg/injection, schedule: Q04DX003 (ip), vehicle: Klucel (hydroxypropylcellulose) (HPC)) was 100 % of control and the T/C (dose: 37.5 mg/kg/injection, schedule: Q04DX003 (ip), vehicle: saline) was 122 % of control.
With `FC(F)(F)c1ccc2c(c1)N(CCCN1CCN(CCOCCCl)CC1)c1ccccc1S2` the T/C (dose: 12.5 mg/kg/injection, schedule: Q04DX003 (ip), vehicle: saline) was 107 % of control.
`CC1(C)OC(C)(C)c2c1nnc(-c1ccccc1[N+](=O)[O-])[n+]2[O-]` was tested, and the T/C (dose: 50.0 mg/kg/injection, schedule: Q01DX005 (ip), vehicle: saline with Tween-80) was 93 % of control, the T/C (dose: 100.0 mg/kg/injection, schedule: Q01DX005 (ip), vehicle: saline with Tween-80) was 88 % of control and the T/C (dose: 200.0 mg/kg/injection, schedule: Q01DX005 (ip), vehicle: saline with Tween-80) was 86 % of control.
For `Nc1ccc2c(-c3ccc([N+](=O)[O-])cc3)cc(=O)[nH]c2n1`, the T/C (dose: 200.0 mg/kg/injection, schedule: Q04DX003 (ip), vehicle: saline) was 100 % of control and the T/C (dose: 400.0 mg/kg/injection, schedule: Q04DX003 (ip), vehicle: saline) was 97 % of control.
For `COC1=CC=C2C3Cc4ccc(OC)c(O)c4C2(C1)CN3C` (stereo unspecified), the T/C (dose: 3.12 mg/kg/injection, schedule: Q01DX009 (ip), vehicle: Klucel (hydroxypropylcellulose) (HPC)) was 87 % of control, the T/C (dose: 6.25 mg/kg/injection, schedule: Q01DX009 (ip), vehicle: Klucel (hydroxypropylcellulose) (HPC)) was 87 % of control and the T/C [3] was 100 % of control.
With `CC1=C[S+](c2ccccc2)c2cccc3cc4ccccc4c1c23` (stereo unspecified) the T/C (dose: 0.4 mg/kg/injection, schedule: Q01DX009 (ip), vehicle: saline with Tween-80) was 154 % of control, the T/C (dose: 0.6 mg/kg/injection, schedule: Q01DX009 (ip), vehicle: saline with Tween-80) was 165 % of control and the T/C (dose: 0.9 mg/kg/injection, schedule: Q01DX009 (ip), vehicle: saline with Tween-80) was 154 % of control and 155 % of control. For the same compound, the T/C (dose: 2.5 mg/kg/injection, schedule: Q01DX009 (ip), vehicle: saline with Tween-80) was 116 % of control.
In the case of `CCCCCCCCCCCC[N+](CC)(CC)CC(=O)O`, the T/C (dose: 33.0 mg/kg/injection, schedule: Q01DX009 (ip), vehicle: saline) was 113 % of control and the T/C (dose: 50.0 mg/kg/injection, schedule: Q01DX009 (ip), vehicle: saline) was 113 % of control.
In the case of `Cc1ccc(C2(C#N)CC2)cc1`, the T/C [1] was 108 % of control, the T/C (dose: 100.0 mg/kg/injection, schedule: Q04DX003 (ip), vehicle: saline with Tween-80) was 100 % of control and the T/C [2] was 112 % of control. For the same compound, the T/C (dose: 200.0 mg/kg/injection, schedule: Q04DX003 (ip), vehicle: saline with Tween-80) was 108 % of control, the T/C (dose: 400.0 mg/kg/injection, schedule: Q01DX009 (ip), vehicle: saline with Tween-80) was 116 % of control and the T/C (dose: 400.0 mg/kg/injection, schedule: Q04DX003 (ip), vehicle: saline with Tween-80) was 116 % of control.
